Measurements: patent US12503707B2, “Methods, plants and compositions for overcoming nutrient suppression of mycorrhizal symbiosis” (Cambridge Enterprise Limited, priority 2020, dated 2025)

What was measured:
[1] = system: M. truncatula root epidermal cells; test: LCO-induced nuclear calcium oscillations after strigolactone or karrikin pre-treatment; format: cell-based, Medicago truncatula; details: 3.75 mM PO4− and 0 mM NO3−; 1 μM pre-treatment for 12 hours, then LCO
Procedure: (§1) FIGS. 11A-11B provide the effects of strigolactone or karrikin treatment on M. truncatula (FIG. 11A) and H. vulgare (FIG. 11B) root epidermal cell nuclear calcium oscillations. FIG. 11A provides traces of nuclear calcium oscillations produced by M. truncatula root epidermal cells. Cells were grown under high phosphate and limiting nitrate levels (3.75 mM PO4^− and 0 mM NO3^−). The top trace represents control cells that were pretreated with buffer alone; the second trace represents cells that were pretreated with 1 μM of strigolactone 5-deoxystrigol for 12 hours; and the third trace represents cells that were pretreated with a 1 μM mixture of karrikin 1 and karrikin 2 (KARs) for 12 hours. All cells were secondarily treated with 10^−8 M NS-LCO. The scale bar indicates a span of 10 minutes, and the fractions indicate the number of cells that responded over the total number of cells analyzed.
In FIGS. 11A-11B, M. truncatula (FIG. 11A) and H. vulgare (FIG. 11B) plants were grown on media containing high phosphate and limiting nitrate (3.75 mM PO4^− and 0 mM NO3^− for M. truncatula; 0 mM NO3^− and 0.5 mM PO4^− for H. vulgare). H. vulgare pants tested in FIG. 14A were grown on BNM media containing high nitrate and high phosphate (5 mM NO3^− and 0.5 mM PO4^−). […]

[2] = system: H. vulgare root epidermal cells; test: LCO-induced nuclear calcium oscillations after strigolactone, karrikin and/or CEP pre-treatment; format: cell-based, Hordeum vulgare; details: then 10^−7 M SmLCO
Procedure: as §1
FIGS. 14A-14D provide the effects of treating H. vulgare plants with a strigolactone or with both a strigolactone and a CEP peptide. […] The scale bar indicates a span of 10 minutes, and the fractions indicate the number of cells that responded over the total number of cells analyzed. FIGS. 14B-14C provide the level of mycorrhizal colonization of H. vulgare when treated with the synthetic strigolactone analog GR24 under different nutrient conditions, as determined in two separate experiments. […]

[3] = system: H. vulgare LysM receptor-like kinase homologs; test: LysM receptor-like kinase gene expression by RT-qPCR after strigolactone or karrikin treatment; format: in vivo, Hordeum vulgare; details: −N+P plates for 4 days, then 0.1 μM for 24 hours; relative to DMSO mock
Description: FIG. 13 provides the relative expression levels of H. vulgare genes, including LysM receptor-like kinase homologs, in response to treatment with strigolactone or karrikin signaling molecules, as determined by qPCR. The H. vulgare gene is indicated on the x-axis including, from left to right, HvSTH7b (a homolog of Arabidopsis STH7, a karrikin-responsive gene (Nelson et al., 2010, PNAS)), HvRLK2, HvRLK3, HvRLK7, HvRLK9, and HvRLK10. Relative expression levels are shown on the y-axis. Values shown are the mean of three samples±SD. ** indicates P<0.01, and * indicates 0.01<P<0.05, as determined by a Student's t-test. […]
Wild type H. vulgare plants tested in FIG. 13 were grown on BNM plates for four days, and the plate roots were then treated with either 0.1 μM 5′-deoxystrigol (Chiralix), a mixture of 0.1 μM Karrikin 1 or 0.1 μM Karrikin 2 (Chiralix), or 0.1 μM GR24 (Chiralix) in liquid BNM for 24 hours. […] Real-time quantitative PCR (RT-qPCR) was performed using SensiFAST SYBR No-ROX Kit. An H. vulgare ADP gene was used as a reference gene, and fold changes were calculated for 5′-deoxystrigol-, karrikins- or GR24-treated roots with respect to DMSO-treated roots (mock treatment). […]

5-deoxystrigol [strigolactone] was tested, and the “symbiotic calcium oscillations under replete phosphate after pre-treatment” value [1] was “overrode phosphate suppression of symbiotic calcium oscillations”, the “symbiotic calcium oscillations under replete phosphate after pre-treatment” value ([2]; 0 mM NO3− and 0.5 mM PO4−, 1 μM pre-treatment for 12 hrs) was “overrode phosphate suppression of symbiotic calcium oscillations” and the “LCO induction of calcium oscillations under high nitrate after pre-treatment” value ([2]; 5 mM NO3− and 0.5 mM PO4−, 1 μM SL) was “only limited LCO induction of calcium oscillations”. For the same substance, the “expression of LysM receptor-like kinase genes, including RLK10” value [3] was “induced”.
